Values of other authors, collected in patent publication US20190231742A1, “NUTRITIONAL AGENTS USED TO PREVENT AND TREAT HYPERSENSITIVITY AND OTHER ALLERGIC-TYPE DISORDERS” (priority 2017, published 2019).

How the values were obtained:
[1] = Alzheimer's disease patient; increasing quantities on successive days
[2] = taken by mouth; FIG. 3
[3] = oral administration of ~20 g; raised from ≤0.2 mM

Structure (SMILES)	time of peak blood D-βOHB level after ingestion [1]	rise in the blood level of D-βOHB and AcAc with increasing oral amount (mg/kg body weight) [2]	water solubility	plasma D-βOHB level [3] [mM]
CC(O)CCOC(=O)CC(C)O [KME, (R)-3-hydroybutyl (R)-3-hydroxybutyrate]	about 1 hour	increases proportionately	somewhat water soluble	
CCCCCCCC(=O)OCC(COC(=O)CCCCCCC)OC(=O)CCCCCCC [tricaprylin]				0.5 to 0.7
